Measured values as given in the supplement of paper PMC4862054.

System: HCC1143
Assay: normalised response (% of control), CellTiter-Glo; higher = more viable cells (100 = DMSO, 0 = benzethonium chloride kill control)
Settings: incubation time: 72 h
Outline: (§1)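 Two readouts were taken after 72 h: CellTox Green fluorescence (485/520 nm) first, then CellTiter-Glo luminescence after 10 min at room temperature. Breast cancer cell lines had been seeded as 20 µl suspension into 384-well plates holding compound at 5 concentrations in 10-fold steps across a compound-specific 10,000-fold range. Each value is a normalised signal at a single concentration, with plates scaled to 0.1 % DMSO (100) and a positive kill control (0).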

Row | SMILES | normalised response
1 | Cc1nc(C(=O)NCC(=O)O)c(O)c2ccc(Oc3ccccc3)cc12 [FG-4592] (1000 nM) | 109%
2 | CC[C@H](CO)Nc1nc(NCc2ccccc2)c2ncn(C(C)C)c2n1 [Seliciclib] (1000 nM) | 103%
3 | C=CCN(/C=C1/C(=O)O[C@H](COC)[C@@]2(C)C1=C(O)C(=O)C1=C2[C@H](OC(C)=O)C[C@]2(C)C(=O)CC[C@@H]12)CC=C [Sonolisib] (1 nM) | 102%
4 | C=CCN(/C=C1/C(=O)O[C@H](COC)[C@@]2(C)C1=C(O)C(=O)C1=C2[C@H](OC(C)=O)C[C@]2(C)C(=O)CC[C@@H]12)CC=C [Sonolisib] (10 nM) | 107%
5 | C=CCN(/C=C1/C(=O)O[C@H](COC)[C@@]2(C)C1=C(O)C(=O)C1=C2[C@H](OC(C)=O)C[C@]2(C)C(=O)CC[C@@H]12)CC=C [Sonolisib] (1000 nM) | 102%
6 | O=[N+]([O-])c1ccc2c(c1)S(=O)(=O)C=C2 [Stattic] (5 nM) | 101%
7 | CC(C)n1cnc2c(NCCc3ccc(O)cc3)nc(-c3csc4ccccc34)nc21 [StemRegenin 1] (1 nM) | 98.1%
8 | CC(C)n1cnc2c(NCCc3ccc(O)cc3)nc(-c3csc4ccccc34)nc21 [StemRegenin 1] (10 nM) | 106%

System: MDA-MB-453
Assay: as above
Settings: incubation time: 72 h
Outline: as §1

Row | SMILES | normalised response
9 | CN[C@@H](C)C(=O)N[C@H]1CN(C(=O)CC(C)C)CC[C@H]2CC[C@@H](C(=O)NC(c3ccccc3)c3ccccc3)N2C1=O [AT-406] (1000 nM) | 78.5%
10 | CC1(COc2ccc3c(c2)ncn3-c2ccc3cccc(N4CCC(N)CC4)c3n2)COC1 [Crenolanib] (1000 nM) | 114%
11 | CC(C)(C)c1nc(-c2cccc(NS(=O)(=O)c3c(F)cccc3F)c2F)c(-c2ccnc(N)n2)s1 [Dabrafenib] (250 nM) | 92.3%
12 | Cc1nc(C(=O)NCC(=O)O)c(O)c2ccc(Oc3ccccc3)cc12 [FG-4592] (1000 nM) | 98.6%
13 | CC[C@H](CO)Nc1nc(NCc2ccccc2)c2ncn(C(C)C)c2n1 [Seliciclib] (1000 nM) | 115%
14 | C=CCN(/C=C1/C(=O)O[C@H](COC)[C@@]2(C)C1=C(O)C(=O)C1=C2[C@H](OC(C)=O)C[C@]2(C)C(=O)CC[C@@H]12)CC=C [Sonolisib] (1 nM) | 119%
15 | C=CCN(/C=C1/C(=O)O[C@H](COC)[C@@]2(C)C1=C(O)C(=O)C1=C2[C@H](OC(C)=O)C[C@]2(C)C(=O)CC[C@@H]12)CC=C [Sonolisib] (10 nM) | 104%
16 | C=CCN(/C=C1/C(=O)O[C@H](COC)[C@@]2(C)C1=C(O)C(=O)C1=C2[C@H](OC(C)=O)C[C@]2(C)C(=O)CC[C@@H]12)CC=C [Sonolisib] (1000 nM) | 105%
17 | O=[N+]([O-])c1ccc2c(c1)S(=O)(=O)C=C2 [Stattic] (5 nM) | 106%
18 | CC(C)n1cnc2c(NCCc3ccc(O)cc3)nc(-c3csc4ccccc34)nc21 [StemRegenin 1] (1 nM) | 115%
19 | CC(C)n1cnc2c(NCCc3ccc(O)cc3)nc(-c3csc4ccccc34)nc21 [StemRegenin 1] (10 nM) | 103%

System: MDA-MB-436
Assay: as above
Settings: incubation time: 72 h
Outline: as §1

Row | SMILES | normalised response
20 | CN[C@@H](C)C(=O)N[C@H]1CN(C(=O)CC(C)C)CC[C@H]2CC[C@@H](C(=O)NC(c3ccccc3)c3ccccc3)N2C1=O [AT-406] (1000 nM) | 99.1%
21 | CC1(COc2ccc3c(c2)ncn3-c2ccc3cccc(N4CCC(N)CC4)c3n2)COC1 [Crenolanib] (1000 nM) | 103%
22 | CC(C)(C)c1nc(-c2cccc(NS(=O)(=O)c3c(F)cccc3F)c2F)c(-c2ccnc(N)n2)s1 [Dabrafenib] (250 nM) | 106%
23 | Cc1nc(C(=O)NCC(=O)O)c(O)c2ccc(Oc3ccccc3)cc12 [FG-4592] (1000 nM) | 100%
24 | CC[C@H](CO)Nc1nc(NCc2ccccc2)c2ncn(C(C)C)c2n1 [Seliciclib] (1000 nM) | 107%
25 | C=CCN(/C=C1/C(=O)O[C@H](COC)[C@@]2(C)C1=C(O)C(=O)C1=C2[C@H](OC(C)=O)C[C@]2(C)C(=O)CC[C@@H]12)CC=C [Sonolisib] (1 nM) | 102%
26 | C=CCN(/C=C1/C(=O)O[C@H](COC)[C@@]2(C)C1=C(O)C(=O)C1=C2[C@H](OC(C)=O)C[C@]2(C)C(=O)CC[C@@H]12)CC=C [Sonolisib] (10 nM) | 111%
27 | C=CCN(/C=C1/C(=O)O[C@H](COC)[C@@]2(C)C1=C(O)C(=O)C1=C2[C@H](OC(C)=O)C[C@]2(C)C(=O)CC[C@@H]12)CC=C [Sonolisib] (1000 nM) | 112%
28 | O=[N+]([O-])c1ccc2c(c1)S(=O)(=O)C=C2 [Stattic] (5 nM) | 99.5%
29 | CC(C)n1cnc2c(NCCc3ccc(O)cc3)nc(-c3csc4ccccc34)nc21 [StemRegenin 1] (1 nM) | 105%
30 | CC(C)n1cnc2c(NCCc3ccc(O)cc3)nc(-c3csc4ccccc34)nc21 [StemRegenin 1] (10 nM) | 96.1%

System: MDA-MB-468
Assay: as above
Settings: incubation time: 72 h
Outline: as §1

Row | SMILES | normalised response
31 | CN[C@@H](C)C(=O)N[C@H]1CN(C(=O)CC(C)C)CC[C@H]2CC[C@@H](C(=O)NC(c3ccccc3)c3ccccc3)N2C1=O [AT-406] (1000 nM) | 71.3%
32 | CC1(COc2ccc3c(c2)ncn3-c2ccc3cccc(N4CCC(N)CC4)c3n2)COC1 [Crenolanib] (1000 nM) | 101%
33 | CC(C)(C)c1nc(-c2cccc(NS(=O)(=O)c3c(F)cccc3F)c2F)c(-c2ccnc(N)n2)s1 [Dabrafenib] (250 nM) | 92%
34 | Cc1nc(C(=O)NCC(=O)O)c(O)c2ccc(Oc3ccccc3)cc12 [FG-4592] (1000 nM) | 103%
35 | CC[C@H](CO)Nc1nc(NCc2ccccc2)c2ncn(C(C)C)c2n1 [Seliciclib] (1000 nM) | 110%
36 | C=CCN(/C=C1/C(=O)O[C@H](COC)[C@@]2(C)C1=C(O)C(=O)C1=C2[C@H](OC(C)=O)C[C@]2(C)C(=O)CC[C@@H]12)CC=C [Sonolisib] (1 nM) | 104%
37 | C=CCN(/C=C1/C(=O)O[C@H](COC)[C@@]2(C)C1=C(O)C(=O)C1=C2[C@H](OC(C)=O)C[C@]2(C)C(=O)CC[C@@H]12)CC=C [Sonolisib] (10 nM) | 101%
38 | C=CCN(/C=C1/C(=O)O[C@H](COC)[C@@]2(C)C1=C(O)C(=O)C1=C2[C@H](OC(C)=O)C[C@]2(C)C(=O)CC[C@@H]12)CC=C [Sonolisib] (1000 nM) | 102%
39 | O=[N+]([O-])c1ccc2c(c1)S(=O)(=O)C=C2 [Stattic] (5 nM) | 99.8%
